Assay [1] deals with T1, hLPYK (Homo sapiens, UniProt P30613).
T1 construct: gene PKLR; full-length liver isozyme; homotetramer; purified or partially purified
Description: enzyme kinetics, allosteric linkage analysis. The format is biochemical. Particulars: allosteric inhibitor site; effector binding in absence of PEP; read-out: Kix-Ala. The text has this: enzyme kinetics, allosteric linkage analysis on hLPYK | (ii) Kix-Ala, the binding of Ala

In a further assay the target is T2, rM1PYK (Oryctolagus cuniculus, UniProt P11974).
T2 construct: gene PKM; rabbit muscle M1 isozyme; homotetramer; crystal structures
Description: X-ray crystal structure, […] Å. Format: binding. Particulars: active site of some subunits; may stem from the crystallisation medium.

Assay [2] addresses T1, hLPYK. Description: enzyme kinetics, allosteric linkage analysis. Particulars: allosteric activator site; effector binding in absence of PEP. Format: biochemical.

SMILES strings stand for the structures. pKd: −log10 of the molar value.

T1 sequence (P30613 1-543 isoform P30613-2): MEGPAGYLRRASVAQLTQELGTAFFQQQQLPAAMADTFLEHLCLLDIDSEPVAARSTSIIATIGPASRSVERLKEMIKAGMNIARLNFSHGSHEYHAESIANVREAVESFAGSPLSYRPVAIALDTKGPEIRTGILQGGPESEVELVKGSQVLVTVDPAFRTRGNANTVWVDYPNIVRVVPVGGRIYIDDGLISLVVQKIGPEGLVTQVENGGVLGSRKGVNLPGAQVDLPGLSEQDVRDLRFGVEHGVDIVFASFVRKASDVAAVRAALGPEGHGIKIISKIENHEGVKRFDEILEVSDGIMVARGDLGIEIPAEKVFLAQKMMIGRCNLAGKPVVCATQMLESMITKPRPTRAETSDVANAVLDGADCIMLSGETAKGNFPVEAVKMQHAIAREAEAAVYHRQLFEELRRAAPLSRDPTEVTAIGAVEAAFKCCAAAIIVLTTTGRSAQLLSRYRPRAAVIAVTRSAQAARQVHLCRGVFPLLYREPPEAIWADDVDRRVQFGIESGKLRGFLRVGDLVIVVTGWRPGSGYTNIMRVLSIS
T2 sequence (P11974 2-531): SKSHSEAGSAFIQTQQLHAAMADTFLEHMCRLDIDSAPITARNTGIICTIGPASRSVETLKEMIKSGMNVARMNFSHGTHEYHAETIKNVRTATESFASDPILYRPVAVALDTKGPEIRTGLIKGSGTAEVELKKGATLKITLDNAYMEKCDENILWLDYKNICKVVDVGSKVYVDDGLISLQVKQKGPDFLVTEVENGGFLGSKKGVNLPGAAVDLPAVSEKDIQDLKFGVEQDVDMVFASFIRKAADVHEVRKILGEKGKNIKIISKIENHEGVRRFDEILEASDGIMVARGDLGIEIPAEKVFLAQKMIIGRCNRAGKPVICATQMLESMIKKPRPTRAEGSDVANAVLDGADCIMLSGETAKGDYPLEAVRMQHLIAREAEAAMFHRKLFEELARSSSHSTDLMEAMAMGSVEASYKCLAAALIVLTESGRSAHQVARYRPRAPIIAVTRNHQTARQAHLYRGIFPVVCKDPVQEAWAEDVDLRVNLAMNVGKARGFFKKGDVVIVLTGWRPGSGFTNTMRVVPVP

With `C[C@H](N)C(=O)O` [alanine], the pKd at hLPYK [1] is 3.60.
As for `O=C(O)CCC(=O)O` [succinate], at rM1PYK, the “X-ray crystal structure, 2.2 Å” value is given as “active sites are populated by either a phosphonate analogue of PEP or succinate”.
As for `O=P(O)(O)OC[C@H]1OC(O)(COP(=O)(O)O)[C@@H](O)[C@@H]1O` (stereo partly drawn) [fructose-1,6-bisphosphate], the Kix-FBP entry at hLPYK [2] is on record as “(iii) Kix-FBP, the binding of Fru-1,6-BP”.
